Assay results: BindingDB's records for doi:10.1124/jpet.105.085829 (Duquesne University, 2005)
pKi: −log10 of the molar value. Several values for one entry are separate records, joined by “and”; a condition that tells them apart may be missing. Equal entries are not always repeated.

Molecular target: Sodium-dependent dopamine transporter (Rattus norvegicus, UniProt P23977)
Sequence (P23977 whole entry): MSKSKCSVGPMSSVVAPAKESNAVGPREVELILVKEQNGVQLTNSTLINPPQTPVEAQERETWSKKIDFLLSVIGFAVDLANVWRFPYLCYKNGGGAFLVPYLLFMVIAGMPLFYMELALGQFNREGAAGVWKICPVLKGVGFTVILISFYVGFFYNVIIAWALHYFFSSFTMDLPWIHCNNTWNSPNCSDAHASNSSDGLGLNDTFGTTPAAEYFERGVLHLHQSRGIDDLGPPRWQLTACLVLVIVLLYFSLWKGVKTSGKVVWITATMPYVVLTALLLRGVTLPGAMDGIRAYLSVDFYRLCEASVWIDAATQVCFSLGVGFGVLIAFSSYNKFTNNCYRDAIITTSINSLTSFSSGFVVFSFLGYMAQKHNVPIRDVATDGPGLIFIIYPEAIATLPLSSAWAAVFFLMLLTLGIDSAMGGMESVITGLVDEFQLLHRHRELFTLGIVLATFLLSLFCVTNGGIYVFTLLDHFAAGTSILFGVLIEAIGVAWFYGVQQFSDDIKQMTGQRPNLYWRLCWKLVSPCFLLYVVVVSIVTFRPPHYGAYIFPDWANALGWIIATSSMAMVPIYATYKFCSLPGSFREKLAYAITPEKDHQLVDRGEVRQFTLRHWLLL

**Q.** With `COC(=O)[C@@H]1CN(C)CC[C@@H]1c1ccc(Cl)cc1` [4-ARA-127] as the compound, how does the pKi read?
**A.** 5.79 and 5.48

**Q.** With `CN1C2CCC1CC(OC(c1ccccc1)c1ccc(C(F)(F)F)cc1)C2` (stereo unspecified) [8-Methyl-3-[phenyl-(4-trifluoromethyl-phenyl)-methoxy]-8-aza-bicyclo[3.2.1]octane] as the compound, how does the pKi read?
**A.** 5.89 and 6.27

**Q.** How did the pKi turn out when `COC(=O)C1C2CCC(C[C@@H]1OC(=O)c1ccccc1)O2` (stereo partly specified) [8-Oxa-norcocaine] was run?
**A.** 5.01 and 5.81

**Q.** With `CC1CN(CCCn2c3ccccc3c3ccccc32)CC(C)N1` (stereo unspecified) [9-[3-(3,5-dimethylpiperazin-1-yl)propyl]-9H-carbazole] as the compound, how does the pKi read?
**A.** 6.19 and 6.74

**Q.** `O[C@]1(c2ccc(Cl)cc2)c2ccccc2C2=NCCN21` [Mazanor] was tested. Which pKi did it give?
**A.** 7.51 and 7.89

**Q.** With `O=CN1C2CCC1CC(OC(c1ccc(F)cc1)c1ccc(F)cc1)C2` (stereo unspecified) [N-CHO-4,4'-diFBZT] as the compound, how does the pKi read?
**A.** < 5.00
